In data set [1] the test system is SK-N-BE(2)-M17. The experiment in a line: Cytoprotection against PQ-induced cell death in human SK-N-BE(2)-M17 cells assessed as increase in cell viability up to 1 mM treated 2 hrs post 2 mM PQ treatment by MTT assay. Format: functional, cell-based.
The nature of data set [2]: Octanol-water partition coefficient, log P of the compound at 1 mg by RP-HPLC analysis. In kind it is physicochemical.
Data set [3] deals with SK-N-BE(2)-M17. The data set can be described thus: Cytoprotection against H2O2-induced cell death in human SK-N-BE(2)-M17 cells assessed as increase in cell viability at 1 mM pretreated for 2 hrs followed by 1 mM H2O2 addition measured after 24 hrs by LDH assay. Format: functional, cell-based.
Data set [4] relates to SK-N-BE(2)-M17. The data set can be described thus: Cytoprotection against H2O2-induced cell death in human SK-N-BE(2)-M17 cells assessed as increase in cell viability at 1 mM pretreated for 2 hrs followed by 1 mM H2O2 addition measured after 24 hrs by MTT assay. In kind it is functional, cell-based.
Data set [5] can be described thus: Binding affinity to Fe3+ in ferric ammonium citrate loaded C57BL6/J mouse brain primary astrocytes assessed as iron depletion at 100 uM treated 2 hrs post 125 uM FAC loading measured after 2 hrs by ICP-MS analysis. Format: cell-based.
The nature of data set [6]: Binding affinity to Fe3+.
Data set [7] deals with SK-N-BE(2)-M17. The experiment in a line: Cytoprotection against PQ-induced cell death in human SK-N-BE(2)-M17 cells assessed as increase in cell viability at 1 mM pretreated for 2 hrs followed by 1 mM PQ addition measured after 24 hrs by LDH assay. In kind it is functional, cell-based.
Data set [8] can be described thus: Binding affinity to Fe2+.
The test system of data set [9] is SK-N-BE(2)-M17. The experiment in a line: Cytoprotection against PQ-induced cell death in human SK-N-BE(2)-M17 cells assessed as increase in cell viability at 1 mM pretreated for 2 hrs followed by 1 mM PQ addition measured after 24 hrs by MTT assay. Format: functional, cell-based.
Data set [10] in a line: Binding affinity to Fe3+ assessed as change in retention time for compound-Fe3+ complex by RP-HPLC analysis relative to free ligand.
The subject of data set [11] is SK-N-BE(2)-M17. The data set can be described thus: Cytoprotection against PQ-induced cell death in human SK-N-BE(2)-M17 cells assessed as increase in cell viability at 100 uM treated 2 hrs post 2 mM PQ treatment measured after 24 hrs by LDH assay. In kind it is functional, cell-based.
Data set [12] can be described thus: Binding affinity to Fe3+ assessed as [M+H]+ adduct formation by LC-MS/MS analysis.
Data set [13] deals with SK-N-BE(2)-M17. The experiment in a line: Cytoprotection against H2O2-induced cell death in human SK-N-BE(2)-M17 cells assessed as increase in cell viability at 100 uM treated 2 hrs post 0.8 mM H2O2 treatment measured after 24 hrs by LDH assay. Format: functional, cell-based.
The test system of data set [14] is SK-N-BE(2)-M17. The experiment in a line: Cytotoxicity against human SK-N-BE(2)-M17 cells at 100 uM 24 hrs by LDH release assay. Format: cell-based. The note with it: sk-n-be(2)-m17, 24 h.
Data set [15] relates to SK-N-BE(2)-M17. The data set can be described thus: Cytotoxicity against human SK-N-BE(2)-M17 cells at 100 uM 24 hrs by MTT assay. In kind it is cell-based. The settings on record: sk-n-be(2)-m17, 24 h.
The test system of data set [16] is SK-N-BE(2)-M17. The data set can be described thus: Cytoprotection against H2O2-induced cell death in human SK-N-BE(2)-M17 cells assessed as increase in cell viability at 100 uM pretreated for 2 hrs followed by 1 mM H2O2 addition measured after 24 hrs by MTT assay. Format: functional, cell-based.
The test system of data set [17] is SK-N-BE(2)-M17. The experiment in a line: Cytoprotection against H2O2-induced cell death in human SK-N-BE(2)-M17 cells assessed as increase in cell viability at 100 uM pretreated for 2 hrs followed by 1 mM H2O2 addition measured after 24 hrs by LDH assay. In kind it is functional, cell-based.
Data set [18] has as its system SK-N-BE(2)-M17. The experiment in a line: Cytoprotection against PQ-induced cell death in human SK-N-BE(2)-M17 cells assessed as increase in cell viability at 100 uM pretreated for 2 hrs followed by 1 mM PQ addition measured after 24 hrs by LDH assay. Format: functional, cell-based.
Data set [19] relates to SK-N-BE(2)-M17. The data set can be described thus: Cytoprotection against PQ-induced cell death in human SK-N-BE(2)-M17 cells assessed as increase in cell viability at 100 uM treated 2 hrs post 2 mM PQ treatment measured after 24 hrs by MTT assay. In kind it is functional, cell-based.
The subject of data set [20] is SK-N-BE(2)-M17. The data set can be described thus: Cytoprotection against H2O2-induced cell death in human SK-N-BE(2)-M17 cells assessed as increase in cell viability at 100 uM treated 2 hrs post 0.8 mM H2O2 treatment measured after 24 hrs by MTT assay. In kind it is functional, cell-based.
For data set [21], the system named is SK-N-BE(2)-M17. The data set can be described thus: Cytoprotection against PQ-induced cell death in human SK-N-BE(2)-M17 cells assessed as increase in cell viability at 100 uM pretreated for 2 hrs followed by 1 mM PQ addition measured after 24 hrs by MTT assay. In kind it is functional, cell-based.
Data set [22] can be described thus: Binding affinity to Fe3+ assessed as [M+2H]+ adduct formation by LC-MS/MS analysis.
Data set [23] has as its system Astrocyte. The experiment in a line: Cytoprotection against H2O2-induced cell death in BSO pretreated C57BL6/J mouse brain primary astrocytes assessed as increase in cell viability at 10 uM pretreated for 2 hrs followed by H2O2 addition measured after 24 hrs by MTT assay. In kind it is functional, cell-based.
Data set [24] relates to SK-N-BE(2)-M17. The data set can be described thus: Cytoprotection against PQ-induced cell death in human SK-N-BE(2)-M17 cells assessed as increase in cell viability at 100 uM treated post 200 uM Fecl3 and 1 mM PQ treatment measured after 24 hrs by LDH assay. In kind it is functional, cell-based.
Data set [25] relates to SK-N-BE(2)-M17. The experiment in a line: Cytoprotection against PQ-induced cell death in human SK-N-BE(2)-M17 cells assessed as increase in cell viability at 100 uM treated post 200 uM Fecl3 and 1 mM PQ treatment measured after 24 hrs by MTT assay. Format: functional, cell-based.
Data set [26] has as its system SK-N-BE(2)-M17. The data set can be described thus: Cytoprotection against PQ-induced cell death in human SK-N-BE(2)-M17 cells assessed as increase in cell viability treated 2 hrs post 2 mM PQ treatment measured after 24 hrs by MTT assay. In kind it is functional, cell-based.
The subject of data set [27] is Astrocyte. The data set can be described thus: Cytoprotection against H2O2-induced cell death in BSO pretreated C57BL6/J mouse brain primary astrocytes assessed as increase in cell viability at 10 uM pretreated for 2 hrs followed by H2O2 addition measured after 24 hrs by LDH release assay. In kind it is functional, cell-based.

Molecules are shown by their SMILES. The source made the active and inactive calls. The rule behind the calls is not given here.

For the molecule `CC(=O)N(O)CCCCCNC(=O)CCC(=O)N(O)CCCCCNC(=O)CCC(=O)N(O)CCCCCN` [DEFEROXAMINE], the result (in the data set with SK-N-BE(2)-M17 [1]; in data set [5]) was inactive. Moreover, the lipophilicity (logP) in data set [2] was -2.29. In addition, the result in the data set with SK-N-BE(2)-M17 [3], in the data set on SK-N-BE(2)-M17 [4], in the data set on SK-N-BE(2)-M17 [7] and in the data set with SK-N-BE(2)-M17 [9] was Active. The log K in [6] amounted to 30; in [8], 8. Also, in data set [10], the Retention time is -0.52 min.

Turning to `CC(=O)N(O)CCCCCNC(=O)CCC(=O)N(O)CCCCCNC(=O)CCC(=O)N(O)CCCCCNC(=O)C1CCCCC1`, the outcome in the data set with SK-N-BE(2)-M17 [11], in the data set with SK-N-BE(2)-M17 [13], with SK-N-BE(2)-M17 [16], with SK-N-BE(2)-M17 [17], in the data set with SK-N-BE(2)-M17 [18] and in the data set with SK-N-BE(2)-M17 [19] was inactive. For the same molecule, the outcome with SK-N-BE(2)-M17 [20] and in the data set with SK-N-BE(2)-M17 [21] was inactive. In addition, the result in data set [12], in data set [5] and in data set [22] was Active. In addition, the Activity entry in the data set with SK-N-BE(2)-M17 [14] and with SK-N-BE(2)-M17 [15] was “Non-Toxic” each time. The molecule further yielded a logP in data set [2] of 0.96. Further, in data set [10], the Retention time was -0.04 min.

For the molecule `CC(=O)N(O)CCCCCNC(=O)CCC(=O)N(O)CCCCCNC(=O)CCC(=O)N(O)CCCCCNC(=O)CC12CC3CC(C)(CC(C)(C3)C1)C2`, the outcome (in [12]; with SK-N-BE(2)-M17 [16]; with Astrocyte [23]; with SK-N-BE(2)-M17 [24]; in [5]; in the data set with SK-N-BE(2)-M17 [17]) was Active. Further, the outcome (in the data set on SK-N-BE(2)-M17 [25]; with SK-N-BE(2)-M17 [18]; with SK-N-BE(2)-M17 [19]; in the data set on Astrocyte [27]; in the data set on SK-N-BE(2)-M17 [21]; in [22]) was Active. Also, the Activity entry in the data set with SK-N-BE(2)-M17 [14] and with SK-N-BE(2)-M17 [15] was “Non-Toxic” throughout. The molecule further registered a logP in data set [2] of 2.17. In addition, in the data set with SK-N-BE(2)-M17 [26], the EC50 was 5.8 µM. Besides, the Retention time in data set [10] was 1.54 min.

For `CCCCC[C@]12CC[C@@H](CC1)[C@@H](C(=O)NCCCCCN(O)C(=O)CCC(=O)NCCCCCN(O)C(=O)CCC(=O)NCCCCCN(O)C(C)=O)C2` (relative stereo), the outcome (in the data set with SK-N-BE(2)-M17 [11]; in [12]; in the data set on SK-N-BE(2)-M17 [13]; in the data set on SK-N-BE(2)-M17 [16]; in the data set with Astrocyte [23]; in data set [5]) was Active. In addition, the outcome in the data set on SK-N-BE(2)-M17 [17], in the data set on SK-N-BE(2)-M17 [18], with SK-N-BE(2)-M17 [19], in the data set on SK-N-BE(2)-M17 [20], in the data set with Astrocyte [27] and in the data set on SK-N-BE(2)-M17 [21] was Active. Besides, the result in data set [22] was Active. The Activity entry in the data set on SK-N-BE(2)-M17 [14] and with SK-N-BE(2)-M17 [15] was “Non-Toxic” throughout. For the same molecule, the logP in data set [2] came out at 2.82. The half-maximal effective concentration (EC50) in the data set on SK-N-BE(2)-M17 [26] was 10 µM. Besides, in [10], the Retention time came to 3.67 min.
